In patent US20050054696A1, “Indole compounds and medicinal use thereof” (priority 2001, published 2005):
pIC50: −log10 of the molar value.

Tests used:
db/db mice = experiment: Measurement of plasma glucose concentration in obesity type diabetes model db/db mice; assay type: in vivo; conditions: Mus musculus, po; plasma glucose 1 and 3 hr after administration, after fasting for 4 hr; significant difference vs solvent group (Dunnett's test); read-out: Minimum effective dose db/db mouse
Method: Measurement Method of Plasma Glucose Concentration
Using obesity type diabetes model db/db mice, the effect of the compound (1) of the present invention on glucose concentration in plasma was examined. The glucose concentration in the plasma of db/db mice (10-15 weeks of age) was measured, and the mice were grouped into 5 mice per group such that the average glucose concentration of plasma is leveled. After fasting for 4 hr, the test drug or a solvent (0.5% methyl cellulose) was orally administered to db/db mice, and plasma glucose concentration at 1 and 3 hr after the administration was measured. The hypoglycemic effect of the test drug was evaluated by detecting a significant difference every hour between the solvent administration group and the test drug administration group (Dunnett's test).

[1] = target: T1, recombinant human liver glycogen phosphorylase (HLGPa) (Homo sapiens, UniProt P06737); experiment: Measurement of liver glycogen phosphorylase activity (enzyme inhibitory activity against HLGPa); assay type: biochemical; conditions: Sf9 cell lysate expressing recombinant enzyme; reverse reaction (glycogen synthesis from G1-P), phosphate by malachite green, 60 min room temperature
T1 construct: made in house; host or cells: Sf9 insect cells (unpurified cell lysate used as enzyme solution)
T1 sequence (P06737 1-847): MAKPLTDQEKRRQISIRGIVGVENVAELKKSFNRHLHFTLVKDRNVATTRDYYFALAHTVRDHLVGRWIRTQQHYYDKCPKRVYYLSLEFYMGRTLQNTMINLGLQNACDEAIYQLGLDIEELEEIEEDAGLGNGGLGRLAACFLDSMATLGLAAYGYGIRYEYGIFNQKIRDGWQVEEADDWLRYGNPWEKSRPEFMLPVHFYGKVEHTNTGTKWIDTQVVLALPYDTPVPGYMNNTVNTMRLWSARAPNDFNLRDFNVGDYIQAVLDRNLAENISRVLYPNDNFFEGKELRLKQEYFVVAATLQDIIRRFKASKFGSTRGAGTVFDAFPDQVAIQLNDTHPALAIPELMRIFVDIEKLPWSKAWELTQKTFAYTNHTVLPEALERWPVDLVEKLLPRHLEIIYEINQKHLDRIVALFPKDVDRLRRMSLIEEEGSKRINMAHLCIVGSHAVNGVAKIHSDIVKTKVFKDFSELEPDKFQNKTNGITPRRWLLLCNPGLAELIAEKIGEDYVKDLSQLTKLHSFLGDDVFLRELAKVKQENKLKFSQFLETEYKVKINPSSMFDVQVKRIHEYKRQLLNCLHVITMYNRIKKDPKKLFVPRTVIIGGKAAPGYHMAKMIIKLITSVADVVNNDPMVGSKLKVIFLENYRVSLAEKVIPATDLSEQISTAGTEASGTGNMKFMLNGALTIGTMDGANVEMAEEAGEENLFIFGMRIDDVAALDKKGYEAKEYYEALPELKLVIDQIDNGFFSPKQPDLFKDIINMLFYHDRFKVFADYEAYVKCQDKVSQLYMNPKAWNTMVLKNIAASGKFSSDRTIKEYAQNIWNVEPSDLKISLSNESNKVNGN
Summary of the method: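 Activity was run in the reverse, glycogen-synthesis direction, using Sf9 lysate expressing recombinant human liver glycogen phosphorylase (enzyme solution 80 μg/mL protein, pH 7.0). Substrate solution was Tris pH 7.2 with 1.25 mM glucose-1-phosphate, 2.5 mg/ml glycogen and 7.5 mM glucose, reacted 60 min at room temperature. Released phosphate was measured by malachite green A650, with % inhibition taken against DMSO control and no-enzyme blank.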

| Compound | minimal effective dose (db/db mice) [mg/kg] | pIC50 [1] |
| --- | --- | --- |
| Cl.N=C(NNC(=O)c1cc2cc(Cl)ccc2[nH]1)c1ccccc1F [Example 6-19, 5-chloro-1H-indole-2-carboxylic acid 2-((2-fluorophenyl)-imino-methyl)hydrazide hydrochloride] | 3 | 7.28 |
| CS(=O)(=O)O.N=C(NNC(=O)c1cc2cc(Cl)ccc2[nH]1)c1ccccc1F [Example 6-20, 5-chloro-1H-indole-2-carboxylic acid 2-((2-fluorophenyl)-imino-methyl)hydrazide methanesulfonate] | 3 | 6.96 |
